This passage reports TGI results from PubChem BioAssay (NCI).

Some test systems named below: A549 NSCLC; BT-549 breast; CAKI-1 renal; COLO 205 colon; DU-145 prostate; EKVX NSCLC; HCT-116 colon; HOP-92 NSCLC; HS 578T breast; K-562 leukemia; LOX IMVI melanoma; MALME-3M melanoma; MDA-MB-231 breast; SF-268 CNS; RXF 393 renal; T-47D breast; MDA-N.
What all share (assay): NCI-60 cell line screen, 48 h

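A five-concentration, 48-hour dose response in 96-well plates underlies each endpoint, interpolated linearly between surrounding concentrations. The concentration for full growth arrest is given as TGI.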

Turning to `CC1=NN(c2nc(N)nc(C/C(N)=N/O)n2)C(C)(C)C1`, the TGI in the assay with A549 NSCLC, in the assay on BT-549 breast, with CAKI-1 renal, with COLO 205 colon, in the assay on DU-145 prostate and in the assay on EKVX NSCLC was above 100 µM throughout. The TGI in the assay with HCT-116 colon, with HOP-92 NSCLC, in the assay with HS 578T breast, in the assay on K-562 leukemia, in the assay with LOX IMVI melanoma and with MALME-3M melanoma was above 100 µM in each case. Moreover, the TGI in the assay with MDA-MB-231 breast and with SF-268 CNS was above 100 µM in each case.

For `CC(C)Oc1cccc(N2C(=NCCc3c[nH]c4ccccc34)Nc3ccncc3S2(=O)=O)c1`, the TGI in the assay on A549 NSCLC was above 100 µM; with BT-549 breast, above 100 µM; in the assay with CAKI-1 renal, above 100 µM; in the assay with COLO 205 colon, 4.08 µM; in the assay on DU-145 prostate, above 100 µM; in the assay with EKVX NSCLC, above 100 µM. The TGI in the assay on HCT-116 colon, with HOP-92 NSCLC, in the assay on HS 578T breast, in the assay with K-562 leukemia, in the assay on LOX IMVI melanoma and with MALME-3M melanoma was above 100 µM each time. Besides, the TGI in the assay on RXF 393 renal was 44.9 µM; in the assay on SF-268 CNS it was above 100 µM; with T-47D breast, above 100 µM.

In the case of `CN(C)c1snc2c1c(=O)n(C)c(=O)n2C`, the TGI with A549 NSCLC, in the assay on CAKI-1 renal, in the assay with COLO 205 colon, with EKVX NSCLC, with HCT-116 colon and in the assay on K-562 leukemia was above 100 µM throughout. Besides, the TGI in the assay with LOX IMVI melanoma, in the assay on MALME-3M melanoma and in the assay with SF-268 CNS was above 100 µM in each case.

As to `COc1nc2c(c(=O)n1C)N=C(c1ccccc1)[C@H](C(CC(=O)c1ccccc1)c1ccccc1)C(c1ccccc1)N2` (stereo not given in full), the TGI with A549 NSCLC, in the assay on BT-549 breast, with CAKI-1 renal, in the assay on COLO 205 colon, in the assay with DU-145 prostate and in the assay on EKVX NSCLC was above 100 µM in each case. Besides, the TGI is above 100 µM with HCT-116 colon; above 100 µM in the assay with HOP-92 NSCLC; above 100 µM in the assay with K-562 leukemia; above 100 µM in the assay on LOX IMVI melanoma; 78.7 µM in the assay with MDA-MB-231 breast; above 100 µM in the assay on MDA-N. The TGI in the assay with RXF 393 renal is above 100 µM.

`COc1ccc(NC(=O)C(C)Oc2ccc(OCC3CCCCC3)cc2)cc1` (stereo not given): the TGI in the assay on A549 NSCLC, with HCT-116 colon, in the assay with K-562 leukemia, with LOX IMVI melanoma, in the assay with MALME-3M melanoma and with RXF 393 renal was above 100 µM throughout. In the assay with SF-268 CNS, this compound came in with a TGI above 100 µM.

Take `CCN(CC)c1ccc(/C=C/C(=O)c2cc(C(C)(C)C)c(O)c(C(C)(C)C)c2)cc1`: the TGI in the assay on A549 NSCLC was above 100 µM; in the assay on BT-549 breast it was above 100 µM; in the assay with CAKI-1 renal, above 100 µM; with COLO 205 colon it was 14.7 µM; in the assay on DU-145 prostate, above 100 µM; in the assay on EKVX NSCLC it was above 100 µM. The TGI was above 39.1 µM in the assay on HCT-116 colon; above 100 µM in the assay on HOP-92 NSCLC; above 39.9 µM in the assay with HS 578T breast; above 100 µM with K-562 leukemia; above 100 µM in the assay on LOX IMVI melanoma; above 100 µM with MALME-3M melanoma. The TGI was 48.1 µM in the assay with MDA-MB-231 breast, 13.5 µM with MDA-N, 39.1 µM in the assay on RXF 393 renal and above 52.9 µM with SF-268 CNS.

On to `O=C1NNC2NC(=O)C3(NN2C1=O)c1ccccc1-c1ccccc13` (stereo not given), for which the TGI in the assay with A549 NSCLC, in the assay with BT-549 breast, with CAKI-1 renal, in the assay with COLO 205 colon, in the assay on DU-145 prostate and in the assay with EKVX NSCLC was above 100 µM throughout. Moreover, the TGI with HCT-116 colon, in the assay on HOP-92 NSCLC, with HS 578T breast, in the assay on K-562 leukemia, in the assay with LOX IMVI melanoma and with MALME-3M melanoma was above 100 µM throughout. In addition, the TGI in the assay on MDA-MB-231 breast, with MDA-N, in the assay on RXF 393 renal and in the assay on SF-268 CNS was above 100 µM each time.

Take `C=CCN1/C(=C2\SC(=S)N(c3ccc(C)cc3)C2=O)Sc2c1nc[nH]c2=O`: the TGI with A549 NSCLC, in the assay with CAKI-1 renal, with COLO 205 colon, in the assay on EKVX NSCLC, with HCT-116 colon and in the assay on HOP-92 NSCLC was above 100 µM throughout. Further, the TGI with K-562 leukemia, in the assay with LOX IMVI melanoma, in the assay on MALME-3M melanoma, in the assay on RXF 393 renal and in the assay on SF-268 CNS was above 100 µM throughout.

In the case of `CN1C(=O)C(O)CC1c1ccccc1C(F)(F)F` (stereo not given), the TGI in the assay with A549 NSCLC, in the assay with BT-549 breast, in the assay on CAKI-1 renal, in the assay with COLO 205 colon, in the assay on DU-145 prostate and in the assay on EKVX NSCLC was above 100 µM in each case. Further, the TGI in the assay with HCT-116 colon, with HOP-92 NSCLC, in the assay on LOX IMVI melanoma, in the assay with MALME-3M melanoma, in the assay on MDA-MB-231 breast and with MDA-N was above 100 µM each time. Moreover, the TGI with RXF 393 renal was above 100 µM.

As for `C#CCN(N=O)C(=O)NCCCCC(NC(C)=O)C(=O)NCc1ccccc1` (stereo not given), the TGI in the assay with A549 NSCLC, in the assay with CAKI-1 renal, with COLO 205 colon, in the assay with EKVX NSCLC, in the assay on HCT-116 colon and with HOP-92 NSCLC was above 100 µM each time. In addition, the TGI with K-562 leukemia, in the assay with LOX IMVI melanoma, in the assay with MALME-3M melanoma, with RXF 393 renal and in the assay on SF-268 CNS was above 100 µM in each case.
